Results on 6 compounds are retold here after ChEMBL document CHEMBL4808212 (Bioorg Med Chem Lett, 2021).

Experiment [1] addresses Replicase polyprotein 1ab (Severe acute respiratory syndrome coronavirus 2, UniProt P0DTD1). Briefly: Inhibition of SARS-CoV-2 3CLpro preincubated for 30 mins followed by addition of (Dabcyl)KTSAVLQSGFRKM(Glu) peptide substrate and measured after […] by FRET assay.
Experiment [2] in a line: Binding affinity to SARS coronavirus 1 3CL protease using Dabcyl-KTSAVLQ/SGFRKME-Edans as substrate measured by FRET assay. Also noted: species or system Severe acute respiratory syndrome-related coronavirus.
The nature of experiment [3]: Inhibition of SARS coronavirus 1 3CL protease using Dabcyl-KTSAVLQ/SGFRKME-Edans as substrate measured by FRET assay. Also noted: species or system Severe acute respiratory syndrome-related coronavirus.
Experiment [4] is described as follows: Inhibition of SARS coronavirus 1 3CL protease expressed in Escherichia coli measured by HPLC method. Also noted: species or system Severe acute respiratory syndrome-related coronavirus.

As usually defined, the IC50 is the concentration that gives 50% inhibition. In experiment [1], `CCOC(=O)/C=C/[C@H](C[C@@H]1CCNC1=O)NC(=O)[C@H](CC(C)C)NC(=O)[C@@H](NC(=O)OCc1ccccc1)C(C)C` registered a half-inhibitory concentration (IC50) of 286 nM.
Same read-out and setting: to `CC(C)C[C@H](NC(=O)OCc1ccccc1)C(=O)N[C@@H](C[C@@H]1CCNC1=O)C(=O)c1nc2ccccc2s1` belongs above 10000 nM; to `O=C[C@H](C[C@@H]1CCNC1=O)NC(=O)[C@H](Cc1cccc(F)c1)NC(=O)c1cc2ccccc2[nH]1`, 23 nM.
The term Ki denotes the equilibrium dissociation constant of an inhibitor or competing ligand from its target. Read a high Ki as weaker binding. Consider `C[C@@H](OC(C)(C)C)[C@H](NC(=O)OCc1ccccc1)C(=O)N[C@@H](CC1CCCCC1)C(=O)N[C@H](C=O)C[C@@H]1CCNC1=O`, for which the affinity in experiment [2], expressed as Ki, was 53 nM.
On to `CC(C)C[C@H](NC(=O)OCc1ccccc1)C(=O)N[C@@H](CC(C)C)C(=O)N[C@@H](C[C@@H]1CCNC1=O)C(=O)C(=O)NC(C)C`, for which the IC50 in experiment [1] worked out at 65 nM; in experiment [3], 7 nM.
On to `COc1cccc2[nH]c(C(=O)N[C@@H](CC(C)C)C(=O)N[C@@H](C[C@@H]3CCNC3=O)C(=O)CO)cc12` [PF-00835231], for which, in experiment [4], the half-maximal inhibitory concentration (IC50) amounted to 4 nM.
